Test results as given in article PMC7529893, “Structural basis for substrate recognition and chemical inhibition of oncogenic MAGE ubiquitin ligases” (Nature Communications, 2020).

Molecular target: T1, MAGE-A11:PCF11 interaction (GST-MAGE-A11 and FAM-PCF11_4) (Homo sapiens, UniProt P43364)
T1 construct: GST-MAGE-A11 MHD (human MAGE-A11 MHD amino acid 218-429); made in house; host or cells: E. coli BL21(DE3)
T1 sequence (P43364 218-429): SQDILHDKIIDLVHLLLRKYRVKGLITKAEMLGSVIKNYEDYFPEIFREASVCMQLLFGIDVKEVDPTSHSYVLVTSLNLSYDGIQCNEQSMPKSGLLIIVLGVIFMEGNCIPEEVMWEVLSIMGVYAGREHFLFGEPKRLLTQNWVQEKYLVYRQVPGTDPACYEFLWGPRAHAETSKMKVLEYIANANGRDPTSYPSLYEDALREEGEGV
Experiment: TR-FRET primary / single point screen at 15 µM
Type: binding
Procedure: The TR-FRET assay buffer with a formula of 50 mM Tris pH 7.5, 20 mM MgCl2, 0.1 mg/ml BSA and 1 mM DTT was freshly prepared before each experiment. All TR-FRET assays were performed in black 384-well plates with 20 µl/well assay volume in the TR-FRET assay buffer at room temperature (~25 °C). All peptides or compounds were solubilized in DMSO. To test the competitive activity of peptides or compounds against the interaction between GST-MAGE-A11 MHD and FAM-PCF11_4 peptide, 10 µl/well peptide or compound at specified concentration was dispensed into a black 384-well low volume plate, followed by 5 µl/well FAM-PCF11_4 (800 nM), 5 µl/well Tb-anti-GST (20 nM), and GST-MAGE-A11 MHD (20 nM). The assay components in each well was then mixed by shaking the plate on an IKA MTS 2/4 digital microtiter plate shaker (IKA Works; Wilmington, NC, USA) for 1 min. The plate was further centrifuged in an Eppendorf 5810 centrifuge with an A-4-62 swing-bucket rotor (Eppendorf AG, Hamburg, Germany) at 201 g for 30 s. The plate was then incubated for 90 min with a lid to avoid light exposure to the assay components. After incubation, the fluorescent emission signals at 520 nm and 490 nm channels of individual wells were measured with a PHERAstar FS plate reader (BMG Labtech; Durham, NC, USA) by using a 340 nm excitation filter, 100 µs delay time, and 200 µs integration time. The TR-FRET fluorescence emission ratio (TR-FRET signal) for each well was presented as 10,000 × 520 nm/490 nm, which was used directly for curve fitting, or further converted to %Inhibition based on the respective positive and negative controls. The graphic software GraphPad Prism 4.81 (GraphPad Software; La Jolla, CA, USA) was used to generate curves and derive IC50 values of tested peptides or compounds, if applicable. TR-FRET screen for identifying MAGE-A11 small molecule inhibitors was performed as follows. The primary one-concentration screening and subsequent 10 or 20-concentration dose-response tests were accomplished with an automated High Throughput Screening system (HighRes Biosolutions, Beverly, MA)[30]. In the primary screening, 15 µl/well FAM-PCF11_4 (267 nM) was first dispensed with a Multidrop Combi Reagent Dispenser (Thermo Fisher Scientific, Waltham, MA) to black 384-well low-volume assay plates. The plates were spun down with a Velocity11 VSpin microplate centrifuge (Agilent Technologies, Santa Clara, CA). In total, 30 nl/well of 10 mM compound/DMSO solutions, or DMSO alone, were transferred from compound plates (the St. Jude FDA drug and bioactive library, Drug-like library and Lead-like library) or a control plate to the assay plates with a Pin Tool (V&P Scientific, San Diego, CA). The compounds were arrayed in columns 3–12 and columns 15–24 of compound plates. The controls were arrayed in columns 1, 2, 13, and 14 of a compound plate. In all, 5 µl/well Tb-anti-GST (20 nM) and GST-MAGE-A11 (20 nM) or 5 µl/well Tb-anti-GST (20 nM) alone was then dispensed to selected wells with a Multidrop Combi Reagent Dispenser. The final assay volume was 20 µl/well. […] The final tested compound concentration was 15 µM. The final FAM-PCF11_4 concentration was 200 nM and the final Tb-anti-GST concentration was 5 nM. The final GST-MAGE-A11 concentration was 5 nM except for those selected positive control wells in which GST-MAGE-A11 was not presented. The plates were then shaken with a big bear shaker (Big Bear Automation, Santa Clara, California) and spun down with the Velocity11 VSpin microplate centrifuge for 20 s. The plates were then incubated at room temperature in a Liconic incubator (Liconic US, Woburn, MA) for 90 min. The TR-FRET signals for individual wells were measured with a PHERAstar FS plate reader. The %Inhibition of each tested inhibitor was calculated by using Eq. 1. Those inhibitors with %Inhibition >30% in the primary screening were selected for further dose-response test, along with additional newly synthesized compounds. […]

[1] = single point TR-FRET screening of 797 quinoline compounds against MAGE-A11:PCF11

O=S(=O)(c1ccccc1)c1cnc2ccc(Cl)cc2c1N1CCN(c2ccccc2)CC1 [SJ000083977]
percent inhibition (TR-FRET) [1]: -15.701

COc1ccc2ncc(S(=O)(=O)c3ccccc3)c(N3CCN(c4ccc(F)cc4)CC3)c2c1 [SJ000083978]
percent inhibition (TR-FRET) [1]: -133.117

CCOc1ccc2ncc(S(=O)(=O)c3ccccc3)c(N3CCN(c4ccc(F)cc4)CC3)c2c1 [SJ000083979]
percent inhibition (TR-FRET) [1]: -181.288

O=S(=O)(c1ccccc1)c1cnc2ccc(F)cc2c1N1CCN(c2ccc(F)cc2)CC1 [SJ000083980]
percent inhibition (TR-FRET) [1]: -11.08

COc1ccc(N2CCN(c3c(S(=O)(=O)c4ccccc4)cnc4ccc(C)cc34)CC2)cc1 [SJ000083981]
percent inhibition (TR-FRET) [1]: -37.966

COc1ccc(N2CCN(c3c(S(=O)(=O)c4ccccc4)cnc4ccc(F)cc34)CC2)cc1 [SJ000083982]
percent inhibition (TR-FRET) [1]: -32.8549

COc1ccc(N2CCN(c3c(S(=O)(=O)c4ccccc4)cnc4ccc(Cl)cc34)CC2)cc1 [SJ000083983]
percent inhibition (TR-FRET) [1]: -17.9415

CN(C)c1cc(NC(=O)CN2CCOCC2)c2ccccc2n1 [SJ000111677]
percent inhibition (TR-FRET) [1]: 4.988

CN(C)c1cc(NC(=O)CNC(C)(C)CC(C)(C)C)c2ccccc2n1 [SJ000111678]
percent inhibition (TR-FRET) [1]: 10.6249

Cc1cc(NC(=O)CN2CCN(C(=O)c3ccco3)CC2)c2ccccc2n1 [SJ000111679]
percent inhibition (TR-FRET) [1]: -1.072

Cc1cc(NC(=O)CN2CCN(C)CC2)c2ccccc2n1 [SJ000111680]
percent inhibition (TR-FRET) [1]: 4.6472

CCc1nc2ccccc2c(NC(=O)CN2CCN(c3ccccc3)CC2)c1C [SJ000111681]
percent inhibition (TR-FRET) [1]: 6.8942

CCc1nc2ccccc2c(NC(=O)CN2CCCCC2)c1C [SJ000111682]
percent inhibition (TR-FRET) [1]: 1.593

O=C(CN1CCN(C(=O)c2ccccc2)CC1)Nc1c2c(nc3ccccc13)N(c1cccc(Cl)c1)CC2 [SJ000111683]
percent inhibition (TR-FRET) [1]: -264.327

O=C(CN1CCN(C(c2ccccc2)c2ccccc2)CC1)Nc1c2c(nc3ccccc13)CCC2 [SJ000111684]
percent inhibition (TR-FRET) [1]: 11.85

COc1ccc(-c2csc(N3CCN(c4cc(C)nc5ccccc45)CC3)n2)cc1OC [SJ000114009]
percent inhibition (TR-FRET) [1]: -53.4343

Cc1ccc(S(=O)(=O)c2cnc3ccccc3c2N2CCN(c3ccccc3)CC2)cc1 [SJ000117047]
percent inhibition (TR-FRET) [1]: -6.567

COc1ccc2ncc(S(=O)(=O)c3ccc(C)cc3)c(N3CCN(c4ccccc4)CC3)c2c1 [SJ000117048]
percent inhibition (TR-FRET) [1]: -85.5732

CCOc1ccc2ncc(S(=O)(=O)c3ccc(C)cc3)c(N3CCN(c4ccccc4)CC3)c2c1 [SJ000117049]
percent inhibition (TR-FRET) [1]: -45.3213

Cc1ccc(S(=O)(=O)c2cnc3ccc(Cl)cc3c2N2CCN(c3ccccc3)CC2)cc1 [SJ000117050]
percent inhibition (TR-FRET) [1]: -3.321

COc1ccc2ncc(S(=O)(=O)c3ccc(C)c(C)c3)c(N3CCN(c4ccccc4)CC3)c2c1 [SJ000117051]
percent inhibition (TR-FRET) [1]: -52.476

Cc1ccc(S(=O)(=O)c2cnc3ccc(F)cc3c2N2CCN(c3ccccc3)CC2)cc1C [SJ000117052]
percent inhibition (TR-FRET) [1]: -16.9013

CCc1ccc(S(=O)(=O)c2cnc3ccccc3c2N2CCN(c3ccccc3)CC2)cc1 [SJ000117053]
percent inhibition (TR-FRET) [1]: -21.2074

CCOc1ccc2ncc(S(=O)(=O)c3ccc(Cl)cc3)c(N3CCN(c4ccccc4)CC3)c2c1 [SJ000117054]
percent inhibition (TR-FRET) (single point TR-FRET screening of quinoline compounds against MAGE-A11:PCF11): -446.911

O=S(=O)(c1ccc(Cl)cc1)c1cnc2ccc(F)cc2c1N1CCN(c2ccccc2)CC1 [SJ000117055]
percent inhibition (TR-FRET) [1]: 2.112

CCc1ccc2ncc(S(=O)(=O)c3ccc(OC)cc3)c(N3CCN(c4ccccc4)CC3)c2c1 [SJ000117056]
percent inhibition (TR-FRET) [1]: -2.791

Cc1ccc(S(=O)(=O)c2cnc3ccccc3c2N2CCN(c3ccc(F)cc3)CC2)cc1 [SJ000117057]
percent inhibition (TR-FRET) [1]: -20.6111

Cc1ccc(S(=O)(=O)c2cnc3ccc(C)cc3c2N2CCN(c3ccc(F)cc3)CC2)cc1 [SJ000117058]
percent inhibition (TR-FRET) [1]: -4.068

COc1ccc2ncc(S(=O)(=O)c3ccc(C)cc3)c(N3CCN(c4ccc(F)cc4)CC3)c2c1 [SJ000117059]
percent inhibition (TR-FRET) [1]: -118.524

CCOc1ccc2ncc(S(=O)(=O)c3ccc(C)cc3)c(N3CCN(c4ccc(F)cc4)CC3)c2c1 [SJ000117060]
percent inhibition (TR-FRET) [1]: -11.0715

Cc1ccc(S(=O)(=O)c2cnc3ccc(F)cc3c2N2CCN(c3ccc(F)cc3)CC2)cc1 [SJ000117061]
percent inhibition (TR-FRET) [1]: -70.4952

Cc1ccc(S(=O)(=O)c2cnc3ccccc3c2N2CCN(c3ccc(F)cc3)CC2)cc1C [SJ000117062]
percent inhibition (TR-FRET) [1]: -54.8642

O=S(=O)(c1ccc(F)cc1)c1cnc2ccc(Cl)cc2c1N1CCN(c2ccc(F)cc2)CC1 [SJ000117063]
percent inhibition (TR-FRET) [1]: -4.205

CCc1ccc2ncc(S(=O)(=O)c3ccc(OC)cc3)c(N3CCN(c4ccc(F)cc4)CC3)c2c1 [SJ000117064]
percent inhibition (TR-FRET) [1]: -9.084

COc1ccccc1N1CCN(c2c(S(=O)(=O)c3ccc(C)cc3)cnc3ccccc23)CC1 [SJ000117065]
percent inhibition (TR-FRET) [1]: -8.687

COc1ccccc1N1CCN(c2c(S(=O)(=O)c3ccc(C)cc3)cnc3ccc(C)cc23)CC1 [SJ000117066]
percent inhibition (TR-FRET) [1]: -92.8867

COc1ccccc1N1CCN(c2c(S(=O)(=O)c3ccc(C)cc3)cnc3ccc(Cl)cc23)CC1 [SJ000117067]
percent inhibition (TR-FRET) [1]: -12.8602

COc1ccccc1N1CCN(c2c(S(=O)(=O)c3ccc(C)c(C)c3)cnc3ccccc23)CC1 [SJ000117068]
percent inhibition (TR-FRET) [1]: -5.706

CCc1ccc(S(=O)(=O)c2cnc3ccccc3c2N2CCN(c3ccccc3OC)CC2)cc1 [SJ000117069]
percent inhibition (TR-FRET) [1]: -47.4423

COc1ccccc1N1CCN(c2c(S(=O)(=O)c3ccc(Cl)cc3)cnc3ccc(C)cc23)CC1 [SJ000117070]
percent inhibition (TR-FRET) [1]: -15.3715

COc1ccc(N2CCN(c3c(S(=O)(=O)c4ccccc4)cnc4ccc(OC)cc34)CC2)cc1 [SJ000117071]
percent inhibition (TR-FRET) [1]: -32.6681

COc1ccc(N2CCN(c3c(S(=O)(=O)c4ccc(C)cc4)cnc4ccc(Cl)cc34)CC2)cc1 [SJ000117072]
percent inhibition (TR-FRET) [1]: -5.838

COc1ccc(N2CCN(c3c(S(=O)(=O)c4ccc(C)c(C)c4)cnc4ccc(F)cc34)CC2)cc1 [SJ000117073]
percent inhibition (TR-FRET) [1]: -13.2577

CCc1ccc(S(=O)(=O)c2cnc3ccccc3c2N2CCN(c3ccc(OC)cc3)CC2)cc1 [SJ000117074]
percent inhibition (TR-FRET) [1]: -11.204

COc1ccc(N2CCN(c3c(S(=O)(=O)c4ccc(Cl)cc4)cnc4ccc(C)cc34)CC2)cc1 [SJ000117075]
percent inhibition (TR-FRET) [1]: -3.122

COc1ccc2ncc(S(=O)(=O)c3ccc(C)cc3)c(N3CCN(c4ccccc4F)CC3)c2c1 [SJ000117076]
percent inhibition (TR-FRET) [1]: 6.02

CCOc1ccc2ncc(S(=O)(=O)c3ccc(C)cc3)c(N3CCN(c4ccccc4F)CC3)c2c1 [SJ000117077]
percent inhibition (TR-FRET) [1]: 5.159
